Two molecules from patent US20250154140A1 (Sunnybrook Research Institute, priority 2022, published 2025) can be followed below.

This assay concerns the target BAX (Homo sapiens, UniProt Q07812). In words: Permeabilization of isolated mitochondria, Smac-mCherry release (cBID activated BAX). It is filed as biochemical, mouse. More on the design: made in house; host or cells: Escherichia coli BL21-AI. The note with it: concentrations up to 60 uM. As to the method: Animal breeding and handling was performed in accordance with local regulations after approval by the Animal Care Committee at Sunnybrook Research Institute, Toronto. The isolation of mouse-liver mitochondria, and use with Bcl-2 family proteins to measure activity and protein-protein interactions was previously described in detail (Pogmore et al., 2016). In mouse liver, BAX is either cytoplasmic or loosely bound to mitochondria. Therefore, BAX is not present in isolated mitochondria. For this reason, when mitochondria are isolated from liver from BAK−/− mice they contain neither BAX or BAK. […] The supernatant was discarded, and the remaining pellet is resuspended in regeneration buffer (300 mM Trehalose, 10 mM HEPES-KOH pH 7.7, 80 mM KCl, 1 mM EGTA, 1 mM EDTA, 0.1% BSA, 5 mM succinate, 2 mM ATP, 10 μM phosphocreatine, and 10 μg/mL creatine kinase) at a protein concentration of 1 mg/mL, (determined by Bradford assay) for immediate use as the source of membranes for FRET measurements. […]
For BAX^−/−/BAK^−/−BMK SMAC-mCherry mitochondria, 2 nM cBID and 20 nM BAX was used to fully permeabilize the mitochondria. […] The percentage of SMAC-mCherry release was determined by fluorometric analysis of the supernatant and pellet fractions by measuring the fluorescence intensity (F) of mCherry (excitation 580, emission 610 in a Tecan M1000).

Chain of BAX (Q07812 whole entry): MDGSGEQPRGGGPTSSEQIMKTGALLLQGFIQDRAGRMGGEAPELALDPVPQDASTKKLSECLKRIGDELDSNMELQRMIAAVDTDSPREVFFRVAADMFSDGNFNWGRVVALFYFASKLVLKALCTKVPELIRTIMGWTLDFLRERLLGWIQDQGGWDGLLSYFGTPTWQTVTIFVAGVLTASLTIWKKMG

For `COc1cc2ccnc(Nc3ccc(F)c(Cl)c3)c2cc1NC(=O)CCCN1CCCCC1` [Compound I-1, N-(1-((3-chloro-4-fluorophenyl)amino)-6-methoxyisoquinolin-7-yl)-4-(piperidin-1-yl)butanamide], the “inhibition of BAX mediated permeabilization of mitochondria” value is on record as “equally effective inhibitors”.

Take `COc1cc2ncnc(Nc3ccc(F)c(Cl)c3)c2cc1NC(=O)/C=C/CN1CCCCC1` [Dacomitinib, reference compound]: the “inhibition of BAX mediated permeabilization of mitochondria” value is recorded as “equally effective inhibitors”.
